According to patent US7144856B2, “Inhibitors of dipeptidyl peptidase I” (Probiodrug AG, priority 2001, dated 2006):
Structures can show the parent of a compound that is named as a salt.

T1: DP I (Rattus norvegicus, UniProt P80067)
T1 sequence (P80067 with tags, fused parts or gaps): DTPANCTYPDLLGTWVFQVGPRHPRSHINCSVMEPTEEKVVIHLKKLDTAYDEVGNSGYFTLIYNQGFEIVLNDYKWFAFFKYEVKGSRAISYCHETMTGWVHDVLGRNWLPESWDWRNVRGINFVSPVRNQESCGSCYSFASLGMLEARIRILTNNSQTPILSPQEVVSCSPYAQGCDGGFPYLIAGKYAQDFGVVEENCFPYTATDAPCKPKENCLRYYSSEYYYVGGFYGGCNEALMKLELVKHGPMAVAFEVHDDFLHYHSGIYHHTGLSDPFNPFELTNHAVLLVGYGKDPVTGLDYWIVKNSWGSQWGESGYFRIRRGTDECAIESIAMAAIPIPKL

T2: cathepsin H (Homo sapiens, UniProt P09668)
T2 sequence (P09668 98-335): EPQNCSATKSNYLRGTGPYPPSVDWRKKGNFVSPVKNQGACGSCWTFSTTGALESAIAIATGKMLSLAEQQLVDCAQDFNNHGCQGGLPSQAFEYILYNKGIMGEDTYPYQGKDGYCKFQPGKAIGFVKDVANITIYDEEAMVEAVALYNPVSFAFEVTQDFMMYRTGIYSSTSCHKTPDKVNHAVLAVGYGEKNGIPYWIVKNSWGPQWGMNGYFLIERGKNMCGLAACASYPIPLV

B1: stefin A (protein, UniProt P01040 1-98, looked up)
Cystatin-A: MIPGGLSEAKPATPEIQEIVDKVKPQLEEKTNETYGKLEAVQYKTQVVAGTNYYIKVRAGDNKYMHLKVFKSLPGQNEDLVLTGYQVDKNKDDELTGF
B2: chicken cystatin (protein, UniProt P01038 24-139, looked up)
Cystatin: SEDRSRLLGAPVPVDENDEGLQRALQFAMAEYNRASNDKYSSRVVRVISAKRQLVSGIKYILQVEIGRTTCPKSSGDLQSCEFHDEPEMAKYTTCTFVVYSIPWLNQIKLLESKCQ

Experiments:
DP I [1] = biological target: T1, DP I; settings: background, literature; cited from earlier work
cathepsin B = cathepsin B (Homo sapiens, UniProt P07858); assay: cross-reactivity against cathepsin B, IC50; assay type: biochemical; settings: n.i. = no inhibition; read-out: IC50 Cath. B
Procedure: (§1) Selected compounds, based on the general formula (II) below, were tested concerning their inhibitory potential against DP I and for their cross-reactivity against three more cysteine proteases, namely cathepsin B, H, L and another dipeptidyl peptidase, dipeptidyl peptidase IV (DP IV).

cathepsin H = biological target: T2, cathepsin H; assay: cross-reactivity against cathepsin H, IC50; assay type: biochemical; settings: n.i. = no inhibition; for IC50: read-out: IC50 Cath. H
Procedure: as §1

cathepsin L = cathepsin L (Homo sapiens, UniProt P07711); assay: cross-reactivity against cathepsin L, IC50; assay type: biochemical; settings: n.i. = no inhibition; read-out: IC50 Cath. L
Procedure: as §1

[2] = biological target: dipeptidyl peptidase IV (DP IV) (Homo sapiens, UniProt P27487); assay: cross-reactivity against dipeptidyl peptidase IV, IC50; assay type: biochemical; settings: n.i. = no inhibition
Procedure: as §1

DP I [3] = biological target: T3, DP I (Rattus norvegicus, UniProt P80067); assay: determination of second order rate constant kinact/Ki for DP I; assay type: biochemical; settings: substrate Gly-Arg-pNA 1 mM and 0.5 mM
T3 construct: purchased Qiagen
Procedure: For the Ki-value determination a UV-spectrophotometer (Lambda 20, PerkinElmer, Überlingen, Germany) was used. The reaction was monitored via the p-nitroaniline released from the substrate (Gly-Arg-pNA) at λ=390 nm. DP I (1 U/mg, assay condition: Tagzyme handbook, Qiagen, Hilden, Germany) was diluted in MES-buffer (1:1000) and preincubated and activated for 30 min on crashed ice. The reaction mixture consists: 500 μl stock solution MES-buffer, 500 μl HCl*Gly-L-Arg-pNA, 250 μl inhibitor, 50 μl DP I. In order to calculate the second order rate constant (kinact/Ki) two substrate concentrations (1 mM and 0.5 mM in the incubation mixture) were combined with 6 inhibitor concentrations (5*10^−7 M to 3*10^−8 M in the assay). From the product-time-course the observed first order rate constant was determined.
Plotting 1/kobs versus substrate concentration allows the calculation of the real first order rate constant of inactivation for each inhibitor concentration at [S]=0.
Based on this equation Ki and kinact can be determined.

[4] = system: L-929 (murine fibroblast cell line); assay: cytotoxicity assay, L-929 cells; assay type: cell-based; settings: 24 hours incubation
Procedure: (§2) The toxicological potential of the compounds provided therein against murine cell lines is different from their toxicological potential against human cell lines. Selected compounds, based on the general formula (II) above, were tested concerning their cytotoxicological potential against the two cell-lines, L-929 (murine fibroblast cell line) and Hep-G2 (human hepatocyte cell line) cells.
(§3) HEP-G2, a human hepatocyte cell line (ACC180) and L-929, a mouse fibroplast cell line (ACC2) were grown in RPMI 1604 with 10% fetal bovine serum and 60 μg/ml gentamycin.
(§4) All cultures were fed every 2–3 days and incubated in an humified chamber at 37° C. and 5% CO2. For determining the cytotoxicity of different DPI-inhibitors, we used the CytoTox96™ Non-radioactive Cytotoxicity Assay (Promega, Madison, Wis., USA). HEP-G2 (30000 cells per well) and L-929 (20000 cells per well) were placed in 96 well plates in RPMI 1604 with 10% fetal bovine serum and grown for 24 hours. The cells were then incubated with various concentrations of different DPI-inhibitors for 24 hours in RPMI 1604 with 10% fetal bovine serum. One hour after addition of MTS-solution, the reaction was stopped by adding stop-solution of Promega. The absorbance was measured at 490 nm with a spectrophotometer. All experiments were performed twice simultaneously in three wells.

[5] = system: Hep-G2 (human hepatocyte cell line); assay: cytotoxicity assay, Hep-G2 cells; assay type: cell-based; settings: 24 hours incubation
Procedure: as §2, §3, §4

Sequence of dipeptidyl peptidase IV (DP IV) (P27487 whole entry, species assumed): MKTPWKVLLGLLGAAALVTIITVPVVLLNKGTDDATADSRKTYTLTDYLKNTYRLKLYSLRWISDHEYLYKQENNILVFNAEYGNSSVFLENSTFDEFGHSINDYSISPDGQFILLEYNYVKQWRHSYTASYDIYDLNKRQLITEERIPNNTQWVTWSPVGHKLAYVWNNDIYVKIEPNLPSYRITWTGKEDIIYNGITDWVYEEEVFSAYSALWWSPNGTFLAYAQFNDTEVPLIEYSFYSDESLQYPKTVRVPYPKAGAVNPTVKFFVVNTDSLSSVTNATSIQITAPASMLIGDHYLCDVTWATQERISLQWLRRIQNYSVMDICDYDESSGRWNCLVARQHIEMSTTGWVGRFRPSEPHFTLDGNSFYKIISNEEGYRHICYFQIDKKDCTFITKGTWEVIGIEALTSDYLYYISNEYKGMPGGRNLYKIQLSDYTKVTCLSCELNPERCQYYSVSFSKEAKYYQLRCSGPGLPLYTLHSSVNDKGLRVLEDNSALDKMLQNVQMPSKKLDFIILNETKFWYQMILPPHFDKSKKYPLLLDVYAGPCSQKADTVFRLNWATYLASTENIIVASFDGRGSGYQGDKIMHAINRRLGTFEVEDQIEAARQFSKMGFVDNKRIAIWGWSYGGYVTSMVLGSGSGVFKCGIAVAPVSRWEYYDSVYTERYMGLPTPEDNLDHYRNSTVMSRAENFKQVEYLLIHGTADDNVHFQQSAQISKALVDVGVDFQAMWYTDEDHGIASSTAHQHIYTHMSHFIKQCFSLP
Sequence of cathepsin L (P07711 114-333): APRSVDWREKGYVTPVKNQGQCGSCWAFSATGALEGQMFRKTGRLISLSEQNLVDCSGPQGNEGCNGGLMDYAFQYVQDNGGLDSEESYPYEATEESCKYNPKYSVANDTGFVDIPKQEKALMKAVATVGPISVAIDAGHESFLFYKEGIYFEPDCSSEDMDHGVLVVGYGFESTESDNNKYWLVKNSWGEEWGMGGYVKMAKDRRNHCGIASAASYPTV

Molecule	inhibition of DP I (in words) (DP I [1])	IC50 (cathepsin B) [µM]	IC50 (cathepsin L) [µM]	IC50 DP IV [2]	kinact/KI (DP I [3]) [M⁻¹ s⁻¹]	also measured
Cc1ccc(C(=O)ONC(=O)[C@H](Cc2ccccc2)NC(=O)CN)cc1 (as salt: TFA) [compound 12, TFA*H-Gly-L-Phe-NHO-Bz-p-CH3]	–	–	–	–	–	melting point: 98 to 101 °C
CNCC(=O)N[C@@H](Cc1ccccc1)C(=O)NOC(=O)c1ccccc1 (as salt: TFA) [compound 14, TFA*H-Sar-L-Phe-NHO-Bz]	–	–	–	–	–	melting point: 69 to 71 °C
CC(C)C[C@H](NC(=O)[C@H]1O[C@@H]1C(=O)O)C(=O)NCCCCN=C(N)N [E-64, reference compound]	weak inhibition	–	–	–	–	–
CC(=O)ONC(=O)[C@H](Cc1ccccc1)NC(=O)CN [compound 10, TFA*H-Gly-L-Phe-NHO-Ac]	–	117	156	n.i.	39000	IC50 Cath. H (cathepsin H): n.i.; LD50 L-929 [4]: 4.3 mg/mL; LD50 Hep-G2 [5]: 1.6 mg/mL
NCC(=O)N[C@@H](Cc1ccccc1)C(=O)NOC(=O)c1ccccc1 [compound 11, TFA*H-Gly-L-Phe-NHO-Bz]	–	37.7	36.9	n.i.	400000	IC50 Cath. H (cathepsin H): n.i.; LD50 L-929 [4]: 1.0 mg/mL; LD50 Hep-G2 [5]: 0.8 mg/mL
Cc1ccc(C(=O)ONC(=O)[C@H](Cc2ccccc2)NC(=O)CN)cc1 [compound 12, TFA*H-Gly-L-Phe-NHO-Bz-p-CH3]	–	34	33.1	n.i.	19000	IC50 (cathepsin H): 154 µM
NCC(=O)N[C@@H](Cc1ccccc1)C(=O)NOC(=O)c1ccc([N+](=O)[O-])cc1 [compound 13, TFA*H-Gly-L-Phe-NHO-Bz-p-NO2]	–	5.31	7.32	n.i.	79000	IC50 (cathepsin H): 34.7 µM; LD50 L-929 [4]: 2.3 mg/mL; LD50 Hep-G2 [5]: 0.8 mg/mL
CNCC(=O)N[C@@H](Cc1ccccc1)C(=O)NOC(=O)c1ccccc1 [compound 14, TFA*H-Sar-L-Phe-NHO-Bz]	–	41.8	4.61	n.i.	140000	IC50 (cathepsin H): 205 µM
CC(=O)N[C@@H](CC(C)C)C(=O)N[C@@H](CC(C)C)C(=O)N[C@H](C=O)CCCNC(=N)N [leupeptin, reference compound]	weak inhibition	–	–	–	–	–
B1	Stronger reversible inhibitors	–	–	–	–	–
B2	Stronger reversible inhibitors	–	–	–	–	–
